Among the data in PubChem BioAssay (NCI) are TGI and GI50 values, retold here.

Among the test systems are PC-3 prostate; MDA-MB-231 breast; 786-0 renal; OVCAR-3 ovarian; NCI-H522 lung; TK-10 renal; MDA-MB-435; MALME-3M melanoma; HL-60(TB) leukemia; SF-295 CNS.
What all share (test): growth of human tumour cells (NCI), 48 h

Molecules are shown by their SMILES.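 Five compound concentrations were applied to cells in 96-well plates for 48 hours; endpoints were derived by simple linear interpolation of the resulting dose-response curve. Abbreviation: GI50, concentration required for 50% inhibition of growth. TGI: concentration producing complete growth inhibition.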

As for `CC(=C/C=C/C=C(C)\C=C\C=C(\C)C(=O)O)/C=C/C=C(/C)C(=O)O`, the TGI with PC-3 prostate, in the experiment on MDA-MB-231 breast, in the experiment on 786-0 renal, with OVCAR-3 ovarian, with NCI-H522 lung and in the experiment with TK-10 renal was above 100 µM in each case. The TGI with MDA-MB-435 is above 100000 nM; in the experiment on MALME-3M melanoma, above 100 µM; in the experiment on HL-60(TB) leukemia, above 100 µM; in the experiment on SF-295 CNS, above 100 µM.
With `Cc1nc2sc(C(=O)Nc3cccc4ccccc34)c(N)c2cc1C(O)c1ccccc1` (stereo not drawn), the GI50 in the experiment on PC-3 prostate is 118 nM; with MDA-MB-231 breast, 150 nM; with 786-0 renal, 123 nM; with OVCAR-3 ovarian, 31.7 nM; in the experiment on NCI-H522 lung, 48 nM; with TK-10 renal it was 1570 nM. In addition, the GI50 with MDA-MB-435 is 20.5 nM; in the experiment on MALME-3M melanoma, 55.8 nM; in the experiment on HL-60(TB) leukemia, 37.6 nM; in the experiment with SF-295 CNS, 0.0513 µM. Further, the TGI with PC-3 prostate was above 38 µM; in the experiment on MDA-MB-231 breast, 5.36 µM; in the experiment on 786-0 renal, 9.69 µM; in the experiment with OVCAR-3 ovarian, 0.0976 µM; with NCI-H522 lung, 11.4 µM; in the experiment with TK-10 renal it was above 91.5 µM. Further, the TGI worked out at 46.9 nM in the experiment on MDA-MB-435, 21.2 µM with MALME-3M melanoma, 0.194 µM in the experiment on HL-60(TB) leukemia and 4.42 µM with SF-295 CNS.
`O=C1NC(=O)C(c2ccccc2Cl)=C1Nc1cc(Cl)c(O)c(Cl)c1`: the GI50 in the experiment with PC-3 prostate is above 23000 nM; in the experiment with MDA-MB-231 breast it was above 25000 nM; with 786-0 renal, 23700 nM; with OVCAR-3 ovarian, 9700 nM; in the experiment with NCI-H522 lung it was 8780 nM; in the experiment with TK-10 renal, above 25000 nM. Further, the GI50 with MDA-MB-435 was 8780 nM; in the experiment with MALME-3M melanoma, 17000 nM; in the experiment with HL-60(TB) leukemia, 9750 nM; in the experiment with SF-295 CNS, above 25 µM. Also, the TGI is above 25 µM in the experiment on PC-3 prostate; above 25 µM in the experiment on MDA-MB-231 breast; above 25 µM in the experiment with 786-0 renal; 24.9 µM in the experiment on OVCAR-3 ovarian; above 25 µM in the experiment on NCI-H522 lung; above 25 µM in the experiment with TK-10 renal. The TGI was above 25000 nM in the experiment on MDA-MB-435, above 25 µM with MALME-3M melanoma, above 25 µM in the experiment with HL-60(TB) leukemia and above 25 µM with SF-295 CNS.
Consider `C/C(=N\Nc1cc(C)c2ccccc2n1)c1ccccn1`, for which the GI50 in the experiment with PC-3 prostate is 82.1 nM; in the experiment with MDA-MB-231 breast, below 28.3 nM; in the experiment on 786-0 renal it was 135 nM; in the experiment with OVCAR-3 ovarian it was below 19.4 nM; with NCI-H522 lung it was 53.4 nM; in the experiment on MDA-MB-435 it was 210 nM. For the same molecule, the GI50 with MALME-3M melanoma is 155 nM; in the experiment with HL-60(TB) leukemia, below 36.5 nM. Besides, the TGI was 4.5 µM in the experiment with PC-3 prostate; 1.66 µM with MDA-MB-231 breast; 1.27 µM with 786-0 renal; 3.51 µM with OVCAR-3 ovarian; 0.319 µM in the experiment with NCI-H522 lung; 2.76 µM in the experiment on TK-10 renal. Also, the TGI in the experiment on MDA-MB-435 was found to be 1750 nM; in the experiment on MALME-3M melanoma, 1.49 µM; in the experiment with HL-60(TB) leukemia, 0.155 µM; with SF-295 CNS, 0.499 µM.
In the case of `CC(C)C[C@H](NC(=O)Cn1ccc(NCc2ccccc2)cc1=O)B(O)O`, the GI50 in the experiment with PC-3 prostate is 5860 nM; in the experiment on MDA-MB-231 breast it was 3180 nM; in the experiment on 786-0 renal, 2020 nM; in the experiment on OVCAR-3 ovarian, 537 nM; in the experiment with NCI-H522 lung, 691 nM; in the experiment with TK-10 renal, 472 nM. Moreover, the GI50 is 335 nM in the experiment with MDA-MB-435, 2220 nM in the experiment on MALME-3M melanoma, 439 nM with HL-60(TB) leukemia and 2.62 µM with SF-295 CNS. For the same molecule, the TGI is 98.9 µM in the experiment with PC-3 prostate; 19.8 µM with MDA-MB-231 breast; above 40.1 µM in the experiment with 786-0 renal; 3.12 µM in the experiment on OVCAR-3 ovarian; 3.08 µM in the experiment with NCI-H522 lung; 5.23 µM in the experiment on TK-10 renal. Also, the TGI is 1290 nM in the experiment on MDA-MB-435, above 30 µM with MALME-3M melanoma, 10.7 µM in the experiment on HL-60(TB) leukemia and 15.3 µM with SF-295 CNS.
With `CCCN(CCC)c1ccc(/C=C/c2ccc3cc(OCC)ccc3n2)cc1`, the GI50 is 56300 nM with PC-3 prostate; above 100000 nM in the experiment with MDA-MB-231 breast; above 100000 nM in the experiment with 786-0 renal; above 100000 nM in the experiment with OVCAR-3 ovarian; 35100 nM in the experiment with NCI-H522 lung; above 100000 nM in the experiment on TK-10 renal. In addition, the GI50 in the experiment on MDA-MB-435 is above 100000 nM; in the experiment with MALME-3M melanoma it was above 100000 nM; with HL-60(TB) leukemia it was 20300 nM; with SF-295 CNS it was 22.7 µM. The TGI in the experiment with PC-3 prostate, with MDA-MB-231 breast, with 786-0 renal, with OVCAR-3 ovarian, in the experiment on NCI-H522 lung and in the experiment on TK-10 renal was above 100 µM throughout. For the same molecule, the TGI in the experiment with MDA-MB-435 was above 100000 nM; in the experiment on MALME-3M melanoma it was above 100 µM; in the experiment on HL-60(TB) leukemia, above 100 µM; with SF-295 CNS it was above 100 µM.
In the case of `C=C1C(=O)O[C@H]2[C@H]1CC/C(COC(=O)c1cc3ccccc3o1)=C\CC[C@@]1(C)O[C@@H]21`, the GI50 with PC-3 prostate was 1760 nM; in the experiment with MDA-MB-231 breast, 1640 nM; in the experiment on 786-0 renal, 1810 nM; with OVCAR-3 ovarian, 485 nM; in the experiment with NCI-H522 lung, 680 nM; in the experiment on TK-10 renal, 3010 nM. Moreover, the GI50 was 1430 nM with MDA-MB-435, 1660 nM in the experiment on MALME-3M melanoma, 1220 nM in the experiment with HL-60(TB) leukemia and 5.9 µM with SF-295 CNS. The TGI in the experiment on PC-3 prostate stood at 3.72 µM; in the experiment with MDA-MB-231 breast, 3.55 µM; in the experiment with 786-0 renal it was 3.45 µM; in the experiment with OVCAR-3 ovarian, 1.72 µM; with NCI-H522 lung, 2.39 µM; in the experiment on TK-10 renal, 9.45 µM. Besides, the TGI was determined as 2900 nM in the experiment on MDA-MB-435, 3.27 µM in the experiment with MALME-3M melanoma, 3.68 µM in the experiment on HL-60(TB) leukemia and 19.1 µM in the experiment with SF-295 CNS.
As to `O=C(O)CCCSc1ccccc1`, the TGI with PC-3 prostate, in the experiment on MDA-MB-231 breast, in the experiment with 786-0 renal, in the experiment on OVCAR-3 ovarian, in the experiment on NCI-H522 lung and with TK-10 renal was above 100 µM throughout. Also, the TGI is above 100000 nM in the experiment on MDA-MB-435, above 100 µM with MALME-3M melanoma, above 100 µM in the experiment on HL-60(TB) leukemia and above 100 µM in the experiment with SF-295 CNS.
